Measured values taken from patent US20190256474A1, “N-PHENYL-2-(3-PHENYL-6-OXO-1,6-DIHYDROPYRIDAZIN-1-YL)ACETAMIDE DERIVATIVES FOR TREATING CYSTIC FIBROSIS” (Proteostasis Therapeutics, Inc., priority 2016, published 2019).

Target: T1, ΔF508-CFTR (Homo sapiens, UniProt P13569, DEL508-508)
T1 construct: Primary lung epithelial cells homozygous for the Cystic Fibrosis-causing ΔF508 mutation were differentiated; endogenous in cells; host or cells: primary human bronchial epithelial cells (hBE), ΔF508/ΔF508
T1 sequence (P13569 with tags, fused parts or gaps DEL508-508): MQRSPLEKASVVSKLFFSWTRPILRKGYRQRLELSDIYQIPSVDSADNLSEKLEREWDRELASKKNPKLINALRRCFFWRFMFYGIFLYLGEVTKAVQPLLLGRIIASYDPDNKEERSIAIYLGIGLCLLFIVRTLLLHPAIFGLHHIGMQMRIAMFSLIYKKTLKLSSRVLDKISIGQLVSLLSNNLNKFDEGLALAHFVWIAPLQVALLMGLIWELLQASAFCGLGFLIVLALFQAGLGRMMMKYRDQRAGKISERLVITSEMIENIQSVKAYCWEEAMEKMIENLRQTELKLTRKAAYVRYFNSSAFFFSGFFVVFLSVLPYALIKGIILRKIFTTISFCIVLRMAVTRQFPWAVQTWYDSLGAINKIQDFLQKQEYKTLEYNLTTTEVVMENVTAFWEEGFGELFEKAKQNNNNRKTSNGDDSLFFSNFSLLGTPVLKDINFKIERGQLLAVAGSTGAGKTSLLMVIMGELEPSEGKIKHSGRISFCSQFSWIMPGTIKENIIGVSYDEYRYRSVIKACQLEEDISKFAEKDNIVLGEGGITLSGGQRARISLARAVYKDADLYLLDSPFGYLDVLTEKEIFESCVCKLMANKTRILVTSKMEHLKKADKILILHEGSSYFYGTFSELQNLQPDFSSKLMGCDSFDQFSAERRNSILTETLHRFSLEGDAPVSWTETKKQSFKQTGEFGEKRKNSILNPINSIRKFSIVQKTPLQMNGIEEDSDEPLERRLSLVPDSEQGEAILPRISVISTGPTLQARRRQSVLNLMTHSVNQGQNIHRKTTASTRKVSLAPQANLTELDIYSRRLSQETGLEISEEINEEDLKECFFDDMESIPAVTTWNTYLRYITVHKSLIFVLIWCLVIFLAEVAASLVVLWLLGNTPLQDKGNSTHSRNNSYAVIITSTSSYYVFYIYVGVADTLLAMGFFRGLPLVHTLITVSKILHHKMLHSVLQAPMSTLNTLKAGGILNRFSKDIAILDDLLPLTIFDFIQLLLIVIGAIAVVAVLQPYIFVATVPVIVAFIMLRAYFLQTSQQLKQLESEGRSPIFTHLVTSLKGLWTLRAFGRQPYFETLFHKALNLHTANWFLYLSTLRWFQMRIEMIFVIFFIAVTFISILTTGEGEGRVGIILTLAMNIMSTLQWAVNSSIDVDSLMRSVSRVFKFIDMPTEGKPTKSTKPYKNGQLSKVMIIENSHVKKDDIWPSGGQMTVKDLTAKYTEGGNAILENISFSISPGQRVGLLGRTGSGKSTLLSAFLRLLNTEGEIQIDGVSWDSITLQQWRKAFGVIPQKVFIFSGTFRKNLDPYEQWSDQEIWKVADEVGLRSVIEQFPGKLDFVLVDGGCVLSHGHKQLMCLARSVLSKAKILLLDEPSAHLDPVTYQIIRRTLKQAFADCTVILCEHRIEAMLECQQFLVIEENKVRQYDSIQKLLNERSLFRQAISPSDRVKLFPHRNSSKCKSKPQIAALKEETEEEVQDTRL
Assay: hBE equivalent current (Ieq) assay, CFTR activity
Assay type: cell-based
Details: relative to a CFTR amplifier at 3 μM, ΔF508 homozygous hBE, 24 h treatment; for Activity 3 μM: compound at 3 μM; for Activity 10 μM: compound at 10 μM
Method: Primary lung epithelial cells homozygous for the Cystic Fibrosis-causing ΔF508 mutation were differentiated for a minimum of 4 weeks in an air-liquid interface on Costar 24 well HTS filter plates prior to the equivalent current (Ieq) measurements. Cells were apically mucus-washed for 30 minutes 24 h prior to treatment with compounds. The basolateral media was removed and replaced with media containing the compound of interest diluted to its final concentration from DMSO stocks. Treated cells were incubated at 37° C. and 5% CO2 for 24 hours. At the end of the treatment period, the media was changed to the Ieq experimental solution for 2 hours before the experiment and plates are maintained in a CO2-free incubator during this period. The plates containing the cells were then placed in pre-warmed heating blocks at 36° C.±0.5 for 15 minutes before measurements are taken. The transepithelial voltage (VT) and conductance (GT) were measured using a custom 24 channel current clamp (TECC-24) with 24 well electrode manifold. The Ieq assay measurements were made following additions with standardized time periods:
1. The baseline VT and GT values were measured for approximately 20 minutes.
2. Benzamil was added to block ENaC for 15 minutes.
3. Forskolin plus VX-770 were added to maximally activate ΔF508-CFTR for 27 minutes.
4. Bumetanide was added to inhibit the NaK2Cl cotransporter and shut-off secretion of chloride.
The activity data captured was the area under the curve (AUC) for the traces of the equivalent chloride current. The AUC was collected from the time of the forskolin/VX-770 addition until the inhibition by bumetanide addition. Correction in response to compound treatment was scored as the increase in the AUC for compound-treated samples over that of vehicle-treated samples.
The results are shown below in Table 1. + indicates activity <150% of a CFTR amplifier with compound at concentration shown and amplifier at 3 μM; ++ indicates activity >150% of a CFTR amplifier with compound at concentration shown and amplifier at 3 μM.

SMILES	Activity 3 μM	Activity 10 μM
COc1cccc(-c2cc(Cl)c(=O)n(C(C)C(=O)Nc3cc(F)cc(F)c3)n2)c1 (stereo not drawn) [Compound 22, 2-(5-Chloro-3-(3-methoxyphenyl)-6-oxopyridazin-1(6H)-yl)-N-(3,5-difluorophenyl)propanamide]	+ (activity <150% of a CFTR amplifier with compound at concentration shown and amplifier at 3 μM)	+ (activity <150% of a CFTR amplifier with compound at concentration shown and amplifier at 3 μM)
COc1cccc(-c2nn(C(C)C(=O)Nc3cc(F)cc(F)c3)c(=O)cc2Cl)c1 (stereo not drawn) [Compound 23, 2-(4-Chloro-3-(3-methoxyphenyl)-6-oxopyridazin-1(6H)-yl)-N-(3,5-difluorophenyl)propanamide]	–	+ (activity <150% of a CFTR amplifier with compound at concentration shown and amplifier at 3 μM)
COc1cccc(-c2nn(C(C)C(=O)Nc3cc(F)cc(F)c3)c(=O)cc2-c2ccccc2)c1 (stereo not drawn) [Compound 24, N-(3,5-Difluorophenyl)-2-[3-(3-methoxyphenyl)-6-oxo-4-phenyl-1,6-dihydropyridazin-1-yl]propanamide]	++ (activity >150% of a CFTR amplifier with compound at concentration shown and amplifier at 3 μM)	++ (activity >150% of a CFTR amplifier with compound at concentration shown and amplifier at 3 μM)
COc1cccc(-c2cc(-c3ccccc3)c(=O)n(C(C)C(=O)Nc3cc(F)cc(F)c3)n2)c1 (stereo not drawn) [Compound 25, N-(3,5-Difluorophenyl)-2-(3-(3-methoxyphenyl)-6-oxo-5-phenylpyridazin-1(6H)-yl)propanamide]	–	+ (activity <150% of a CFTR amplifier with compound at concentration shown and amplifier at 3 μM)
COc1cccc(-c2ccc(=O)n(C(C)C(=O)Nc3cc(O)c(C(C)(C)C)cc3C(C)(C)C)n2)c1 (stereo not drawn) [Compound 26, N-(2,4-Di-tert-butyl-5-hydroxyphenyl)-2-[3-(3-methoxyphenyl)-6-oxo-1,6-dihydropyridazin-1-yl]propanamide]	+ (activity <150% of a CFTR amplifier with compound at concentration shown and amplifier at 3 μM)	+ (activity <150% of a CFTR amplifier with compound at concentration shown and amplifier at 3 μM)
COc1cccc(-c2ccc(=O)n(C(C)C(=O)Nc3ccc(Cl)c(Cl)c3)n2)c1 (stereo not drawn) [Compound 27, N-(3,4-Dichlorophenyl)-2-[3-(3-methoxyphenyl)-6-oxo-1,6-dihydropyridazin-1-yl]propanamide]	++ (activity >150% of a CFTR amplifier with compound at concentration shown and amplifier at 3 μM)	++ (activity >150% of a CFTR amplifier with compound at concentration shown and amplifier at 3 μM)
CC(C(=O)Nc1ccc(C(F)(F)F)cc1)n1nc(-c2ccccc2)ccc1=O (stereo not drawn) [Compound 28, 2-(6-oxo-3-phenyl-1,6-dihydropyridazin-1-yl)-N-[4-(trifluoromethyl)phenyl]propanamide]	++ (activity >150% of a CFTR amplifier with compound at concentration shown and amplifier at 3 μM)	++ (activity >150% of a CFTR amplifier with compound at concentration shown and amplifier at 3 μM)
CC(C(=O)Nc1ccc(C(F)(F)F)cc1)n1nc(-c2ccccc2Cl)ccc1=O (stereo not drawn) [Compound 29, 2-[3-(2-Chlorophenyl)-6-oxo-1,6-dihydropyridazin-1-yl]-N-[4-(trifluoromethyl)phenyl]propanamide]	+ (activity <150% of a CFTR amplifier with compound at concentration shown and amplifier at 3 μM)	+ (activity <150% of a CFTR amplifier with compound at concentration shown and amplifier at 3 μM)
CC(C(=O)Nc1ccc(C(F)(F)F)cc1)n1nc(-c2cccc(Cl)c2)ccc1=O (stereo not drawn) [Compound 30, 2-[3-(3-Chlorophenyl)-6-oxo-1,6-dihydropyridazin-1-yl]-N-[4-(trifluoromethyl)phenyl]propanamide]	++ (activity >150% of a CFTR amplifier with compound at concentration shown and amplifier at 3 μM)	++ (activity >150% of a CFTR amplifier with compound at concentration shown and amplifier at 3 μM)
CC(C(=O)Nc1ccc(C(F)(F)F)cc1)n1nc(-c2ccc(Cl)cc2)ccc1=O (stereo not drawn) [Compound 31, 2-[3-(4-Chlorophenyl)-6-oxo-1,6-dihydropyridazin-1-yl]-N-[4-(trifluoromethyl)phenyl]propanamide]	+ (activity <150% of a CFTR amplifier with compound at concentration shown and amplifier at 3 μM)	+ (activity <150% of a CFTR amplifier with compound at concentration shown and amplifier at 3 μM)
CC(C(=O)Nc1ccc(C(F)(F)F)cc1)n1nc(-c2ccccc2C(F)(F)F)ccc1=O (stereo not drawn) [Compound 32, 2-[6-Oxo-3-[2-(trifluoromethyl)phenyl]-1,6-dihydropyridazin-1-yl]-N-[4-(trifluoromethyl)phenyl]propanamide]	+ (activity <150% of a CFTR amplifier with compound at concentration shown and amplifier at 3 μM)	+ (activity <150% of a CFTR amplifier with compound at concentration shown and amplifier at 3 μM)
CC(C(=O)Nc1ccc(C(F)(F)F)cc1)n1nc(-c2cccc(C(F)(F)F)c2)ccc1=O (stereo not drawn) [Compound 33, 2-[6-Oxo-3-[3-(trifluoromethyl)phenyl]-1,6-dihydropyridazin-1-yl]-N-[4-(trifluoromethyl)phenyl]propanamide]	++ (activity >150% of a CFTR amplifier with compound at concentration shown and amplifier at 3 μM)	++ (activity >150% of a CFTR amplifier with compound at concentration shown and amplifier at 3 μM)
CC(C(=O)Nc1ccc(C(F)(F)F)cc1)n1nc(-c2ccc(C(F)(F)F)cc2)ccc1=O (stereo not drawn) [Compound 34, 2-[6-Oxo-3-[4-(trifluoromethyl)phenyl]-1,6-dihydropyridazin-1-yl]-N-[4-(trifluoromethyl)phenyl]propanamide]	+ (activity <150% of a CFTR amplifier with compound at concentration shown and amplifier at 3 μM)	+ (activity <150% of a CFTR amplifier with compound at concentration shown and amplifier at 3 μM)
CC(C(=O)Nc1ccc(C(F)(F)F)cc1)n1nc(-c2ccccc2C#N)ccc1=O (stereo not drawn) [Compound 35, 2-[3-(2-Cyanophenyl)-6-oxo-1,6-dihydropyridazin-1-yl]-N-[4-(trifluoromethyl)phenyl]propanamide]	+ (activity <150% of a CFTR amplifier with compound at concentration shown and amplifier at 3 μM)	+ (activity <150% of a CFTR amplifier with compound at concentration shown and amplifier at 3 μM)
CC(C(=O)Nc1ccc(C(F)(F)F)cc1)n1nc(-c2cccc(C#N)c2)ccc1=O (stereo not drawn) [Compound 36, 2-[3-(3-Cyanophenyl)-6-oxo-1,6-dihydropyridazin-1-yl]-N-[4-(trifluoromethyl)phenyl]propanamide]	++ (activity >150% of a CFTR amplifier with compound at concentration shown and amplifier at 3 μM)	++ (activity >150% of a CFTR amplifier with compound at concentration shown and amplifier at 3 μM)
CC(C(=O)Nc1ccc(C(F)(F)F)cc1)n1nc(-c2ccc(C#N)cc2)ccc1=O (stereo not drawn) [Compound 37, 2-[3-(4-Cyanophenyl)-6-oxo-1,6-dihydropyridazin-1-yl]-N-[4-(trifluoromethyl)phenyl]propanamide]	+ (activity <150% of a CFTR amplifier with compound at concentration shown and amplifier at 3 μM)	+ (activity <150% of a CFTR amplifier with compound at concentration shown and amplifier at 3 μM)
CCC(C(=O)Nc1ccc(C(F)(F)F)cc1)n1nc(-c2cccc(OC)c2)ccc1=O (stereo not drawn) [Compound 38, 2-[3-(3-Methoxyphenyl)-6-oxo-1,6-dihydropyridazin-1-yl]-N-[4-(trifluoromethyl)phenyl]butanamide]	++ (activity >150% of a CFTR amplifier with compound at concentration shown and amplifier at 3 μM)	++ (activity >150% of a CFTR amplifier with compound at concentration shown and amplifier at 3 μM)
COc1cccc(-c2ccc(=O)n(C(C(=O)Nc3ccc(C(F)(F)F)cc3)C3CC3)n2)c1 (stereo not drawn) [Compound 39, 2-Cyclopropyl-2-(3-(3-methoxyphenyl)-6-oxopyridazin-1(6H)-yl)-N-(4-(trifluoromethyl)phenyl)acetamide]	++ (activity >150% of a CFTR amplifier with compound at concentration shown and amplifier at 3 μM)	++ (activity >150% of a CFTR amplifier with compound at concentration shown and amplifier at 3 μM)
COc1cccc(-c2ccc(=O)n(C(C(=O)Nc3ccc(C(F)(F)F)cc3)c3ccccc3)n2)c1 (stereo not drawn) [Compound 40, 2-(3-(3-Methoxyphenyl)-6-oxopyridazin-1(6H)-yl)-2-phenyl-N-(4-(trifluoromethyl)phenyl)acetamide]	++ (activity >150% of a CFTR amplifier with compound at concentration shown and amplifier at 3 μM)	+ (activity <150% of a CFTR amplifier with compound at concentration shown and amplifier at 3 μM)
